Measured values: patent US11802111B2, “Cyclobutyl amide monoacylglycerol lipase modulators” (Janssen Pharmaceutica NV, priority 2020, dated 2023)

Each compound was assayed against human MGL from HeLa cells (Homo sapiens (Human), UniProt Q99685) (assay: MGL in vitro activity assay ([glycerol-1,3-3H]-oleoyl glycerol hydrolysis, activated carbon filtration)). Settings: 300 nM [Glycerol-1,3-3H]-oleoyl glycerol, one hour.
Chain of human MGL from HeLa cells (Q99685 whole entry): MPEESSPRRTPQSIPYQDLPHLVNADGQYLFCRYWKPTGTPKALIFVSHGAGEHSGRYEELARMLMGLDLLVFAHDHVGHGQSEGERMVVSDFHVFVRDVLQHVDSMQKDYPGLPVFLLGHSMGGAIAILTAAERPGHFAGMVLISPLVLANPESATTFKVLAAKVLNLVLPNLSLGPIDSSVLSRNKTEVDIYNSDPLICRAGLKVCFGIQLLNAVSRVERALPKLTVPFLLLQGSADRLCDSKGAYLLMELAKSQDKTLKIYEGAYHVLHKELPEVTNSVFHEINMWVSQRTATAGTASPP
Assay type: biochemical
Summary of the method: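 Activity measured as tritium in the flow-through after activated carbon filtration of a 1 h reaction containing 300 nM 3H-oleoyl glycerol, compound and HeLa-derived human MGL. Compounds screened at 10 μM; IC50 series start at an empirically chosen highest concentration.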
Cc1cc(CC2CC3(C2)CN(C(=O)[C@H]2C[C@@](C)(O)C2)C3)ccc1F [Example 228, (6-(4-Fluoro-3-methylbenzyl)-2-azaspiro[3.3]heptan-2-yl)((1s,3s)-3-hydroxy-3-methylcyclobutyl)methanone] gave an IC50 of 15 nM.
In the case of CC(C)(C)c1ccc(OC2CCC3(C2)CN(C(=O)[C@H]2C[C@@](C)(O)C2)C3)cc1 (mixture of isomers) [Example 240, (rac)-(6-(4-(tert-Butyl)phenoxy)-2-azaspiro[3.4]octan-2-yl)((1s,3s)-3-hydroxy-3-methylcyclobutyl)methanone], the IC50 is reported as 122 nM.
Work on COc1cc(C)nc(C2CCC3(CC2)CN(C(=O)[C@H]2C[C@@](C)(O)C2)C3)c1 [Example 375, ((1s,3s)-3-Hydroxy-3-methylcyclobutyl)(7-(4-methoxy-6-methylpyridin-2-yl)-2-azaspiro[3.5]nonan-2-yl)methanone] yielded an IC50 of 231 nM.
C[C@]1(O)C[C@@H](C(=O)N2CC3(CC[C@@H](Cc4cccc(OC(F)(F)F)c4)C3)C2)C1 (racemic) [Example 180, (rac)-((1s,3s)-3-Hydroxy-3-methylcyclobutyl)(6-(3-(trifluoromethoxy)benzyl)-2-azaspiro[3.4]octan-2-yl)methanone] was tested, and the IC50 was 8.3 nM.
Cc1ccc(C2CCC3(C2)CN(C(=O)[C@H]2C[C@@](C)(O)C2)C3)c(C)c1 (mixture of isomers) [Example 14, (rac)-(6-(2,4-Dimethylphenyl)-2-azaspiro[3.4]octan-2-yl)((1s,3s)-3-hydroxy-3-methylcyclobutyl)methanone] was tested, and the IC50 was 26 nM.
For Cc1c(F)cccc1CC1CC2(C1)CN(C(=O)[C@H]1C[C@@](C)(O)C1)C2 [Example 227, (6-(3-Fluoro-2-methylbenzyl)-2-azaspiro[3.3]heptan-2-yl)((1s,3s)-3-hydroxy-3-methylcyclobutyl)methanone], the IC50 was 20 nM.
Compound Cc1ccc(OC2CCC3(CC2)CN(C(=O)[C@H]2C[C@@](C)(O)C2)C3)cc1C(F)(F)F [Example 259, ((1s,3s)-3-Hydroxy-3-methylcyclobutyl)(7-(4-methyl-3-(trifluoromethyl)phenoxy)-2-azaspiro[3.5]nonan-2-yl)methanone] has an IC50 of 3 nM.
In the case of Cc1cc(OC2CCC3(CC2)CN(C(=O)[C@H]2C[C@@](C)(O)C2)C3)ncc1C(F)(F)F [Example 442, ((1s,3s)-3-Hydroxy-3-methylcyclobutyl)(7-((4-methyl-5-(trifluoromethyl)pyridin-2-yl)oxy)-2-azaspiro[3.5]nonan-2-yl)methanone], the IC50 is reported as 9.6 nM.
With CC(c1cccc2ccnn12)C1CC2(C1)CN(C(=O)[C@H]1C[C@@](C)(O)C1)C2 (mixture of isomers) [Example 316, (rac)-((1s,3s)-3-Hydroxy-3-methylcyclobutyl)(6-(1-(pyrazolo[1,5-a]pyridin-7-yl)ethyl)-2-azaspiro[3.3]heptan-2-yl)methanone] the IC50 was 49 nM.
In the case of Cc1cc(OC2CCC3(CC2)CN(C(=O)[C@H]2C[C@@](C)(O)C2)C3)nc2c1ccn2C [Example 470, (7-((1,4-Dimethyl-1H-pyrrolo[2,3-b]pyridin-6-yl)oxy)-2-azaspiro[3.5]nonan-2-yl)((1s,3s)-3-hydroxy-3-methylcyclobutyl)methanone], the IC50 is reported as 11 nM.
With Cc1nc(O[C@H]2CCC3(C[C@@H]2C)CN(C(=O)[C@H]2C[C@@](C)(O)C2)C3)ccc1C(F)(F)F (stereo in doubt) [Example 444, ((1s,3*R)-3-Hydroxy-3-methylcyclobutyl)((6*S,7*S)-6-methyl-7-((6-methyl-5-(trifluoromethyl)pyridin-2-yl)oxy)-2-azaspiro[3.5]nonan-2-yl)methanone] the IC50 was 4.8 nM.
Compound C[C@]1(O)C[C@@H](C(=O)N2CC3(CCC(c4cccn5nccc45)C3)C2)C1 (mixture of isomers) [Example 324, (rac)-((1s,3s)-3-Hydroxy-3-methylcyclobutyl)(6-(pyrazolo[1,5-c]pyridin-4-yl)-2-azaspiro[3.4]octan-2-yl)methanone] has an IC50 of 835 nM.
In the case of C[C@]1(O)C[C@@H](C(=O)N2CC3(CC(Cc4ccncc4)C3)C2)C1 [Example 206, ((1s,3s)-3-Hydroxy-3-methylcyclobutyl)(6-(pyridin-4-ylmethyl)-2-azaspiro[3.3]heptan-2-yl)methanone], the IC50 is reported as 1140 nM.
Cc1cc(C)cc([C@H]2CC[C@]3(CC2)CN(C(=O)[C@H]2C[C@@](C)(O)C2)[C@H]3C)c1 (stereo in doubt) [Example 348, ((1*S,4r,7*S)-7-(3,5-Dimethylphenyl)-1-methyl-2-azaspiro[3.5]nonan-2-yl)((1s,3*R)-3-hydroxy-3-methylcyclobutyl)methanone] gave an IC50 of 326 nM.
CC(C)(C)c1cccc(C2CC3(C2)CN(C(=O)[C@H]2C[C@@](C)(O)C2)C3)n1 [Example 34, (6-(6-(tert-Butyl)pyridin-2-yl)-2-azaspiro[3.3]heptan-2-yl)((1s,3s)-3-hydroxy-3-methylcyclobutyl)methanone] showed an IC50 of 25 nM.
Cn1cnc(-c2cccc(C3CCC4(CC3)CN(C(=O)[C@H]3C[C@@](C)(O)C3)C4)c2)c1 [Example 345, ((1s,3s)-3-Hydroxy-3-methylcyclobutyl)(7-(3-(1-methyl-1H-imidazol-4-yl)phenyl)-2-azaspiro[3.5]nonan-2-yl)methanone] gave an IC50 of 187 nM.
With C[C@]1(O)C[C@@H](C(=O)N2CC3(CCC(c4cccn5ccnc45)C3)C2)C1 (mixture of isomers) [Example 327, (rac)-((1s,3s)-3-Hydroxy-3-methylcyclobutyl)(6-(imidazo[1,2-c]pyridin-8-yl)-2-azaspiro[3.4]octan-2-yl)methanone] the IC50 was 3090 nM.
With Cc1cc(C2CCC3(C2)CN(C(=O)[C@H]2C[C@@](C)(O)C2)C3)ccc1C(F)(F)F (mixture of isomers) [Example 67, (rac)-((1s,3s)-3-Hydroxy-3-methylcyclobutyl)(6-(3-methyl-4-(trifluoromethyl)phenyl)-2-azaspiro[3.4]octan-2-yl)methanone] the IC50 was 1.7 nM.
With COc1cc(Cl)cc(C2CCC3(C2)CN(C(=O)[C@H]2C[C@@](C)(O)C2)C3)c1 (mixture of isomers) [Example 86, (rac)-(6-(3-Chloro-5-methoxyphenyl)-2-azaspiro[3.4]octan-2-yl)((1s,3s)-3-hydroxy-3-methylcyclobutyl)methanone] the IC50 was 42 nM.
Cc1c(OC2CCC3(C2)CN(C(=O)[C@H]2C[C@@](C)(O)C2)C3)cccc1C(F)(F)F (mixture of isomers) [Example 253, (rac)-((1s,3s)-3-Hydroxy-3-methylcyclobutyl)(6-(2-methyl-3-(trifluoromethyl)phenoxy)-2-azaspiro[3.4]octan-2-yl)methanone] showed an IC50 of 26 nM.
With COc1ccc(CC2CC3(C2)CN(C(=O)[C@H]2C[C@@](C)(O)C2)C3)c(C(F)(F)F)c1 [Example 217, ((1s,3s)-3-Hydroxy-3-methylcyclobutyl)(6-(4-methoxy-2-(trifluoromethyl)benzyl)-2-azaspiro[3.3]heptan-2-yl)methanone] the IC50 was 3.5 nM.
In the case of COc1cc(C)cc(C2CC3(CCN(C(=O)[C@H]4C[C@@](C)(O)C4)CC3)C2)c1 [Example 478, ((1s,3s)-3-Hydroxy-3-methylcyclobutyl)(2-(3-methoxy-5-methylphenyl)-7-azaspiro[3.5]nonan-7-yl)methanone], the IC50 is reported as 203 nM.
For Cn1cnc2cc(C3CCC4(C3)CN(C(=O)[C@H]3C[C@@](C)(O)C3)C4)ccc21 (mixture of isomers) [Example 111, (rac)-((1s,3s)-3-Hydroxy-3-methylcyclobutyl)(6-(1-methyl-1H-benzo[d]imidazol-5-yl)-2-azaspiro[3.4]octan-2-yl)methanone], the IC50 was 949 nM.
